Data reported in the supplement of paper PMC13380429.
Where a name gives a salt, the structure may show the parent alone.

Key:
Conditions in all cases: 72 h
HepG2 [1] = assay: relative viability EC50 (midpoint between 100% and the lowest measured viability); higher = less toxic
Caco-2 [2] = assay: as above
U2OS [3] = assay: as above
Vero E6 [4] = assay: as above
HepG2 [5] = assay: cell viability relative to DMSO; higher = less toxic
Caco-2 [6] = assay: as above
U2OS [7] = assay: as above
Vero E6 [8] = assay: as above
HepG2 [9] = assay: drug sensitivity score (DSS) for viability; higher = more toxic; extreme values may be limits of the assay
Caco-2 [10] = assay: as above
U2OS [11] = assay: as above
Vero E6 [12] = assay: as above
Calu-3 [13] = assay: cell viability relative to DMSO; higher = less toxic
Calu-3 [14] = assay: drug sensitivity score (DSS) for viability; higher = more toxic; extreme values may be limits of the assay

| SMILES | relative viability EC50 (HepG2 [1]) [µM] | relative viability EC50 (Caco-2 [2]) [µM] | relative viability EC50 (U2OS [3]) [µM] | relative viability EC50 (Vero E6 [4]) [µM] | cell viability (HepG2 [5]; 1 nM) [%] | cell viability (HepG2 [5]; 10 nM) [%] | cell viability (HepG2 [5]; 100 nM) [%] | cell viability (HepG2 [5]; 1000 nM) [%] | cell viability (HepG2 [5]; 10000 nM) [%] | cell viability (Caco-2 [6]; 1 nM) [%] | cell viability (Caco-2 [6]; 10 nM) [%] | cell viability (Caco-2 [6]; 100 nM) [%] | cell viability (Caco-2 [6]; 1000 nM) [%] | cell viability (Caco-2 [6]; 10000 nM) [%] | cell viability (U2OS [7]; 1 nM) [%] | cell viability (U2OS [7]; 10 nM) [%] | cell viability (U2OS [7]; 100 nM) [%] | cell viability (U2OS [7]; 1000 nM) [%] | cell viability (U2OS [7]; 10000 nM) [%] | cell viability (Vero E6 [8]; 1 nM) [%] | cell viability (Vero E6 [8]; 10 nM) [%] | cell viability (Vero E6 [8]; 100 nM) [%] | cell viability (Vero E6 [8]; 1000 nM) [%] | cell viability (Vero E6 [8]; 10000 nM) [%] | drug sensitivity score (HepG2 [9]) | drug sensitivity score (Caco-2 [10]) | drug sensitivity score (U2OS [11]) | drug sensitivity score (Vero E6 [12]) | cell viability (Calu-3 [13]; 1 nM) [%] | cell viability (Calu-3 [13]; 10 nM) [%] | cell viability (Calu-3 [13]; 100 nM) [%] | cell viability (Calu-3 [13]; 1000 nM) [%] | cell viability (Calu-3 [13]; 10000 nM) [%] | drug sensitivity score (Calu-3 [14]) |
| --- | --- | --- | --- | --- | --- | --- | --- | --- | --- | --- | --- | --- | --- | --- | --- | --- | --- | --- | --- | --- | --- | --- | --- | --- | --- | --- | --- | --- | --- | --- | --- | --- | --- | --- |
| COc1cccc(-c2ccc(NC(=O)C3=C(C(=O)O)CCC3)c(F)c2)c1 | > 10 | > 10 | > 10 | > 10 | 103 | 89.4 | 98.8 | 97.5 | 92.6 | 96.4 | 93.1 | 103 | 98.6 | 78.8 | 99 | 105 | 96.8 | 104 | 96.2 | 90.1 | 92.2 | 98 | 95.8 | 90.8 | 0 | 0.9 | 0 | 0 |  |  |  |  |  |  |
| Cc1cccc(-c2[nH]c(C(C)(C)C)nc2-c2ccc3c(c2)OCO3)n1 | 1.52 | 1.49 |  | > 10 | 94.6 | 102 | 101 | 75.2 | 4.5 | 95.4 | 94.3 | 98.3 | 77.1 | 15 | 98.8 | 98.6 | 90.6 | 95.4 | 69.2 | 104 | 101 | 107 | 96.2 | 81.7 | 9.1 | 8.2 | 2.1 | 0.9 | 102 | 95.2 | 107 | 103 | 70.3 | 1.1 |
| Cc1cccc(-c2n[nH]cc2-c2ccc(F)c(-c3cnn(CCO)c3)c2)n1 | > 10 | > 10 | > 10 | > 10 | 103 | 94.1 | 95.2 | 106 | 109 | 93.3 | 91.9 | 99.7 | 92.5 | 91.5 | 103 | 98.8 | 95.7 | 89.3 | 92.6 | 96.1 | 101 | 98 | 93.4 | 94.5 | 0 | 0 | 0.1 | 0 |  |  |  |  |  |  |
| N#Cc1ccc(COC[C@H]2O[C@@H](n3c(NCc4ccc(Cl)c(Cl)c4)nc4c(N)ncnc43)[C@H](O)[C@@H]2O)cc1 | 1.66 |  |  | > 10 | 94.2 | 93.4 | 101 | 82.5 | 20.4 | 94.5 | 98.9 | 91.8 | 101 | 52.8 | 95.6 | 97.9 | 93.7 | 97.4 | 64.9 | 101 | 97.8 | 106 | 99.9 | 99.4 | 7.2 | 2.3 | 2 | 0 | 96.9 | 93.3 | 99.6 | 86.2 | 52.8 | 4.5 |
| O=C(O)c1cc2occc2[nH]1 | > 10 | > 10 | > 10 | > 10 | 99.2 | 104 | 103 | 92.6 | 103 | 91.3 | 89 | 94.2 | 94.1 | 94.6 | 98.6 | 104 | 99.5 | 102 | 98.7 | 107 | 104 | 102 | 99.8 | 101 | 0 | 0 | 0 | 0 |  |  |  |  |  |  |
| Cc1cc(C(=O)O)sc1C(N)C(=O)O (stereo not given) [3-MATIDA] | > 10 | > 10 | > 10 | > 10 | 96.4 | 94.8 | 83.2 | 96.3 | 91.8 | 96.9 | 105 | 97.3 | 99.4 | 96.9 | 103 | 110 | 96.8 | 102 | 97.5 | 92.6 | 99.2 | 95.2 | 93.5 | 98 | 0 | 0 | 0 | 0 |  |  |  |  |  |  |
| Nc1cc2c3ccccc3ccc2c2ccccc12 [6-aminochrysene] |  |  |  |  |  |  |  |  |  |  |  |  |  |  |  |  |  |  |  |  |  |  |  |  | 3 |  | 4.4 | 0.2 |  |  |  |  |  | 0 |
| CN(C)CCN(C)CCc1ccc(Cl)c(Cl)c1 [BD-1047] | > 10 | > 10 | > 10 | > 10 | 98.3 | 102 | 96.2 | 85.5 | 89.9 | 95.4 | 102 | 98.3 | 94.6 | 91.8 | 97.2 | 102 | 93.4 | 97.5 | 94.7 | 94.5 | 104 | 96.8 | 93.6 | 97.4 | 1.6 | 0 | 0 | 0 |  |  |  |  |  |  |
| O=[N+]([O-])c1cnc(Sc2nnc(O)n2-c2ccc3c(c2)OCCO3)s1 [BI-78D3] | 1.4 | 2.14 | 3.02 | 2.75 | 103 | 102 | 95.8 | 70.3 | 1.4 | 99.2 | 102 | 94 | 88.3 | 7 | 98.9 | 98 | 94.5 | 97.9 | 0.1 | 101 | 95.6 | 99.3 | 94.7 | 0.4 | 9.8 | 7.1 | 5.8 | 6.3 |  |  |  |  |  |  |
| CN(C)[C@@H]1C(O)=C(C(N)=O)C(=O)[C@@]2(O)C(O)=C3C(=O)c4c(O)ccc(Cl)c4[C@@](C)(O)[C@H]3C[C@@H]12 [CHLORTETRACYCLINE HYDROCHLORIDE] |  |  |  |  |  |  |  |  |  |  |  |  |  |  |  |  |  |  |  |  |  |  |  |  | 0 |  | 0 | 0 |  |  |  |  |  | 0 |
| CCOC(=O)[C@H](Cc1ccccc1)NC(=O)c1cc(Cl)c(OCCN2CCN(C)CC2)c(Cl)c1O [JTE-607] | 0.606 | > 10 | > 10 | > 10 | 107 | 109 | 98.6 | 56.8 | 41.9 | 90.9 | 95.5 | 99.8 | 103 | 76.1 | 99.9 | 98.8 | 95.7 | 102 | 80 | 103 | 99.1 | 104 | 101 | 103 | 8.4 | 0.7 | 0.5 | 0 |  |  |  |  |  |  |
| CCNC(=O)CC[C@H](N)C(=O)O [L-theanine] | > 10 | > 10 | > 10 | > 10 | 95.8 | 89.8 | 95.5 | 89.8 | 99.4 | 98.2 | 95 | 98.7 | 93.1 | 105 | 99.8 | 103 | 95.8 | 101 | 102 | 95.8 | 99 | 105 | 104 | 88 | 0 | 0 | 0 | 0 |  |  |  |  |  |  |
| Nc1nc2cc(-c3ccc4ncc(C(=O)N5CCOCC5)n4c3)ccc2o1 [MLN1117] |  |  | > 10 | > 10 | 98.1 | 101 | 102 | 96.3 | 54.5 | 107 | 101 | 107 | 89.9 | 66.6 | 96.4 | 95.2 | 106 | 91.2 | 84.3 | 104 | 106 | 106 | 95.1 | 85.8 | 2.9 | 3 | 1 | 0.5 | 94.2 | 102 | 104 | 96.8 | 64.7 | 2.2 |
| COc1ccc(C(=O)C2CCN(CC(=O)N(Cc3nc4c(c(=O)[nH]3)COCC4)CC3CC3)CC2)cc1 [NVP-TNKS656] | > 10 | > 10 | > 10 |  | 98.7 | 106 | 106 | 106 | 93.6 | 110 | 96.7 | 92.9 | 109 | 93.3 | 99 | 96.7 | 91.5 | 88.9 | 90.6 | 105 | 101 | 83.1 | 63.1 | 65.9 | 0 | 0 | 0.3 | 8.7 | 95.3 | 97.3 | 70.3 | 68.2 | 82.7 | 9.5 |
| Oc1cccc(Nc2ncc(F)c(Nc3cccc(O)c3)n2)c1 [R112] | 2.72 |  | 3.01 | 3.03 | 106 | 102 | 107 | 96.1 | 30.9 | 103 | 107 | 99.1 | 94.7 | 62.1 | 97.6 | 101 | 95.6 | 98.5 | 30.2 | 103 | 102 | 99.9 | 99 | 46.6 | 4.4 | 2.7 | 4 | 3 | 92.2 | 100 | 92.6 | 92.6 | 74.8 | 1.4 |
